Earlier results, collected in patent US20070243260A1, “Treatment of Childhood Asthma” (priority 2004, published 2007).

Columns and labels:
[1] = system: asthma; settings: single administration, metered-dose aerosol
[2] = system: asthma; settings: inhaled; up to 8 hours appears to be maximal

C[N+]1(C)CCC(OC(=O)C(O)(c2ccccc2)C2CCCC2)C1 (centres unmarked) [glycopyrrolate]
Period of bronchodilation [1]: 12 h | Duration of effective treatment [2]: up to 12 hours
